{
  "source": "paper PMC7901654",
  "about": "“Bioisosteric Discovery of NPA101.3, a Second-Generation RET/VEGFR2 Inhibitor Optimized for Single-Agent Polypharmacology” (Journal of Medicinal Chemistry, 2020)",
  "key": {"LKB1": {"target": "T1, LKB1 (Homo sapiens, UniProt Q15831)", "T1 construct": "purchased DiscoveRx KINOMEscan (TRKA and CSF1R IC50 enzymes from Invitrogen)", "assay": "KinomeScan panel screen", "assay_type": "binding", "settings": "LKB1, 100 nM; read-out: Percent Control", "experimental": "(§1) In addition, NPA101.3, at a concentration of 100 nM, was subjected to a kinome scan against a 96-kinase panel representing major kinome clusters (Table S2). The compound featured good selectivity, displaying strong binding activity (>90% bound) for only seven additional kinases [CSF1R (colony stimulating factor 1 receptor), FRK (fyn-related Src family tyrosine kinase), HCK (HCK proto-oncogene, Src family tyrosine kinase), LYN (lyn proto-oncogene, Src family tyrosine kinase), MKNK2 (MAPK-interacting serine/threonine kinase 2), TRKA (neurotrophic receptor tyrosine kinase 1), and TRKC (neurotrophic receptor tyrosine kinase 3)] and weak binding (>10–35% bound) for six other kinases (Table S2 and Figure S2). It is important to note that the measurement of binding affinity, which is based on control ligand displacement (Kd), is more sensitive than the in vitro kinase assay. Among the seven kinases with >90% binding, TRKA and CSF1R were selected for an in vitro kinase assay.\n(§2) Supplementary Table S2: NPA101.3 KinomeScan Panel screen.\n(§3) NPA101.3 was screened at a single concentration of 100 nM. Hits values lower than\n(§4) 10% of control were considered strongly positive.\n(§5) DiscoveRx Gene Entrez Gene Percent Compound\n(§6) Symbol Symbol Control Concentration"}, "CDK9": {"target": "T2, CDK9 (Homo sapiens, UniProt P50750)", "T2 construct": "purchased DiscoveRx KINOMEscan (TRKA and CSF1R IC50 enzymes from Invitrogen)", "assay": "KinomeScan panel screen", "assay_type": "binding", "settings": "CDK9, 100 nM; read-out: Percent Control", "experimental": "as §1, §2, §3, §4, §5, §6"}, "PCTK1": {"target": "T3, PCTK1 (Homo sapiens, UniProt Q00536)", "T3 construct": "purchased DiscoveRx KINOMEscan (TRKA and CSF1R IC50 enzymes from Invitrogen)", "assay": "KinomeScan panel screen", "assay_type": "binding", "settings": "PCTK1, 100 nM; read-out: Percent Control", "experimental": "as §1, §2, §3, §4, §5, §6"}, "EGFR": {"target": "T4, EGFR (Homo sapiens, UniProt P00533)", "T4 construct": "purchased DiscoveRx KINOMEscan (TRKA and CSF1R IC50 enzymes from Invitrogen)", "assay": "KinomeScan panel screen", "assay_type": "binding", "settings": "100 nM, read-out: Percent Control", "experimental": "as §1, §2, §3, §4, §5, §6"}, "PIK3C2B": {"target": "T5, PIK3C2B (Homo sapiens, UniProt O00750)", "T5 construct": "purchased DiscoveRx KINOMEscan (TRKA and CSF1R IC50 enzymes from Invitrogen)", "assay": "KinomeScan panel screen", "assay_type": "binding", "settings": "100 nM, read-out: Percent Control", "experimental": "as §1, §2, §3, §4, §5, §6"}, "MUSK": {"target": "T6, MUSK (Homo sapiens, UniProt O15146)", "T6 construct": "purchased DiscoveRx KINOMEscan (TRKA and CSF1R IC50 enzymes from Invitrogen)", "T6 sequence (O15146 24-869)": "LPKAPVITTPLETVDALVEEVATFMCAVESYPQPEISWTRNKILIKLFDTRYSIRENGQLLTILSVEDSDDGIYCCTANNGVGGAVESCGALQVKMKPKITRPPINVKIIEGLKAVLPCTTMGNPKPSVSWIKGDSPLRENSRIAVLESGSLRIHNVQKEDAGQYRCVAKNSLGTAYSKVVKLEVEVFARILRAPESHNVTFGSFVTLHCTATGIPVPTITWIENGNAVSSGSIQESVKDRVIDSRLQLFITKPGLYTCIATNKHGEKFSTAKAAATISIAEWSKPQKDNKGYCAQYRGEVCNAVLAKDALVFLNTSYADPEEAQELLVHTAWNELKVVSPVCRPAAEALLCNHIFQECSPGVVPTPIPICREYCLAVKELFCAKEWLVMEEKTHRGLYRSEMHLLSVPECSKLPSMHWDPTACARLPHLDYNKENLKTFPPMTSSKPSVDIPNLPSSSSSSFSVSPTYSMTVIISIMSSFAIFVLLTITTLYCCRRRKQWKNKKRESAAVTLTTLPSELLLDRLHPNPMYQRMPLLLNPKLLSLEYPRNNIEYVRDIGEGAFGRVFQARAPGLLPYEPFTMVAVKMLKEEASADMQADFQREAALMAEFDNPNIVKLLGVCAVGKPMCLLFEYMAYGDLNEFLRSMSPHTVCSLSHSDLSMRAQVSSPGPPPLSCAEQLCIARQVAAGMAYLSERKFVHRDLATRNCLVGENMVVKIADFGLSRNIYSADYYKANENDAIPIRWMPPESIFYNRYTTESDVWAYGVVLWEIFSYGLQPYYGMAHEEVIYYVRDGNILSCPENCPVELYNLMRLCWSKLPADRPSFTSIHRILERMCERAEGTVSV", "assay": "KinomeScan panel screen", "assay_type": "binding", "settings": "100 nM, read-out: Percent Control", "experimental": "as §1, §2, §3, §4, §5, §6"}, "FGFR3": {"target": "T7, FGFR3 (Homo sapiens, UniProt P22607)", "T7 construct": "purchased DiscoveRx KINOMEscan (TRKA and CSF1R IC50 enzymes from Invitrogen)", "T7 sequence (P22607 23-806)": "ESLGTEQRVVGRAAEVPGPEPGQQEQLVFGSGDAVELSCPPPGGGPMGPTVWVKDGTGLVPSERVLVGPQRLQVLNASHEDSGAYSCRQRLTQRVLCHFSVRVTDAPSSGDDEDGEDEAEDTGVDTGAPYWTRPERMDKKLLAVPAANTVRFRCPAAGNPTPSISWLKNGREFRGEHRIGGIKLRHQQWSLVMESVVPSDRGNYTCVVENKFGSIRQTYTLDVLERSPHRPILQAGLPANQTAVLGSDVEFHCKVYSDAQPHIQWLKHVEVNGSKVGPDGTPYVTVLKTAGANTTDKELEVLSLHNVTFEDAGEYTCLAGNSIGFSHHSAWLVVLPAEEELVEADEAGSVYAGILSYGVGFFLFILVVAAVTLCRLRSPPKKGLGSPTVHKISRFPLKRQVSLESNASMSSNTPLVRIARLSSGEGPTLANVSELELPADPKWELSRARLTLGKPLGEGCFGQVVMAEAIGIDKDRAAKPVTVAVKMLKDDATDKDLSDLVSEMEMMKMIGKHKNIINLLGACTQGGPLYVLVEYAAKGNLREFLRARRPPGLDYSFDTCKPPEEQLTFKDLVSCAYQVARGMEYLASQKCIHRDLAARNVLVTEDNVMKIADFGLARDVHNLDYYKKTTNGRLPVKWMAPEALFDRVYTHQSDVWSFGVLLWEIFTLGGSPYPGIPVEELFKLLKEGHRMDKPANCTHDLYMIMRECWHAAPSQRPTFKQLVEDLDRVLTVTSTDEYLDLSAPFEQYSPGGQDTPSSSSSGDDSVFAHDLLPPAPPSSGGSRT", "assay": "KinomeScan panel screen", "assay_type": "binding", "settings": "FGFR3, 100 nM; read-out: Percent Control", "experimental": "as §1, §2, §3, §4, §5, §6"}, "GAK": {"target": "T8, GAK (Homo sapiens, UniProt O14976)", "T8 construct": "purchased DiscoveRx KINOMEscan (TRKA and CSF1R IC50 enzymes from Invitrogen)", "assay": "KinomeScan panel screen", "assay_type": "binding", "settings": "100 nM, read-out: Percent Control", "experimental": "as §1, §2, §3, §4, §5, §6"}, "HCK": {"target": "T9, HCK (Homo sapiens, UniProt P08631)", "T9 construct": "purchased DiscoveRx KINOMEscan (TRKA and CSF1R IC50 enzymes from Invitrogen)", "assay": "KinomeScan panel screen", "assay_type": "binding", "settings": "100 nM", "experimental": "as §1, §2, §3, §4, §5, §6"}, "MTOR": {"target": "T10, MTOR (Homo sapiens, UniProt P42345)", "T10 construct": "purchased DiscoveRx KINOMEscan (TRKA and CSF1R IC50 enzymes from Invitrogen)", "assay": "KinomeScan panel screen", "assay_type": "binding", "settings": "100 nM, read-out: Percent Control", "experimental": "as §1, §2, §3, §4, §5, §6"}, "PRKD2": {"target": "T11, PRKD2 (Homo sapiens, UniProt Q9BZL6)", "T11 construct": "purchased DiscoveRx KINOMEscan (TRKA and CSF1R IC50 enzymes from Invitrogen)", "assay": "KinomeScan panel screen", "assay_type": "binding", "settings": "PRKD2, 100 nM; read-out: Percent Control", "experimental": "as §1, §2, §3, §4, §5, §6"}, "INSR": {"target": "T12, INSR (Homo sapiens, UniProt P06213)", "T12 construct": "purchased DiscoveRx KINOMEscan (TRKA and CSF1R IC50 enzymes from Invitrogen)", "T12 sequence (P06213 28-1382)": "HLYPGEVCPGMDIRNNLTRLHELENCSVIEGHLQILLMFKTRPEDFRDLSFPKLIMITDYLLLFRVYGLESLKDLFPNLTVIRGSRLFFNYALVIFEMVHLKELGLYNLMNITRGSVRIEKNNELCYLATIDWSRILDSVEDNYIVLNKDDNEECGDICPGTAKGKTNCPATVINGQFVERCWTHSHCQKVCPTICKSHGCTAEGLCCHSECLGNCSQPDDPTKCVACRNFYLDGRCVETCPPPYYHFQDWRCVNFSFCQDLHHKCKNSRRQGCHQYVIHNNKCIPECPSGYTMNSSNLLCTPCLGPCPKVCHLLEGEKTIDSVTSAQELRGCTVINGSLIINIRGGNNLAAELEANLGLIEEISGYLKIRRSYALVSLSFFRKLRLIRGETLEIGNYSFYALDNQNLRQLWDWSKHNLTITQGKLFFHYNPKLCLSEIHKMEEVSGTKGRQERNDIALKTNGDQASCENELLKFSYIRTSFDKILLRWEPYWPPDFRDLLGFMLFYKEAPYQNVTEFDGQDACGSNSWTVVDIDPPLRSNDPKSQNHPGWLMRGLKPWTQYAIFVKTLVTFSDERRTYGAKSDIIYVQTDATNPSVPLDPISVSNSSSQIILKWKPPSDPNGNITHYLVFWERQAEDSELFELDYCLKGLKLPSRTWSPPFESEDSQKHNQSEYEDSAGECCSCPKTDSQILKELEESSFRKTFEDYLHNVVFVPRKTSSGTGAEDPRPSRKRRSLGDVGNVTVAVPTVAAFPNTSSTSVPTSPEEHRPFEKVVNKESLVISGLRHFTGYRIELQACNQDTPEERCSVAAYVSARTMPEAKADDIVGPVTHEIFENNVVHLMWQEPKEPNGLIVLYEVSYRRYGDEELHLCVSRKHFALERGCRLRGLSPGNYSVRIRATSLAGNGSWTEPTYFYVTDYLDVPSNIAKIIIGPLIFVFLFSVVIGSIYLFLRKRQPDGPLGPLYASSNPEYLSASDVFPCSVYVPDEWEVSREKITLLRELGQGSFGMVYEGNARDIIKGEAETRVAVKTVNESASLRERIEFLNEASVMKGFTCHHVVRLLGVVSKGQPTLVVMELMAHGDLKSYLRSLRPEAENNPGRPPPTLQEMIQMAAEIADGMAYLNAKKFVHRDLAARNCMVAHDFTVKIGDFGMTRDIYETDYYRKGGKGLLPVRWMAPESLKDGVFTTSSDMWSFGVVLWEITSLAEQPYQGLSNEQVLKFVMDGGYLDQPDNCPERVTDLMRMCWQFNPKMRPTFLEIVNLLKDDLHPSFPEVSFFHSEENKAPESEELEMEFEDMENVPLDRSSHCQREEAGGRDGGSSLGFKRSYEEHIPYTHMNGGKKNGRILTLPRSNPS", "assay": "KinomeScan panel screen", "assay_type": "binding", "settings": "100 nM, read-out: Percent Control", "experimental": "as §1, §2, §3, §4, §5, §6"}, "PIK3CA": {"target": "T13, PIK3CA (Homo sapiens, UniProt P42336)", "T13 construct": "purchased DiscoveRx KINOMEscan (TRKA and CSF1R IC50 enzymes from Invitrogen)", "assay": "KinomeScan panel screen", "assay_type": "binding", "settings": "100 nM, read-out: Percent Control", "experimental": "as §1, §2, §3, §4, §5, §6"}, "BRSK2": {"target": "T14, BRSK2 (Homo sapiens, UniProt Q8IWQ3)", "T14 construct": "purchased DiscoveRx KINOMEscan (TRKA and CSF1R IC50 enzymes from Invitrogen)", "assay": "KinomeScan panel screen", "assay_type": "binding", "settings": "BRSK2, 100 nM; read-out: Percent Control", "experimental": "as §1, §2, §3, §4, §5, §6"}, "RET/C634R": {"target": "T15, RET/C634R (Homo sapiens, UniProt P07949, C634R)", "T15 construct": "expressed in transfected cells; host or cells: RAT1 fibroblasts (gift of M. Billaud)", "T15 sequence (P07949 29-1072 isoform P07949-2 C634R limits assumed)": "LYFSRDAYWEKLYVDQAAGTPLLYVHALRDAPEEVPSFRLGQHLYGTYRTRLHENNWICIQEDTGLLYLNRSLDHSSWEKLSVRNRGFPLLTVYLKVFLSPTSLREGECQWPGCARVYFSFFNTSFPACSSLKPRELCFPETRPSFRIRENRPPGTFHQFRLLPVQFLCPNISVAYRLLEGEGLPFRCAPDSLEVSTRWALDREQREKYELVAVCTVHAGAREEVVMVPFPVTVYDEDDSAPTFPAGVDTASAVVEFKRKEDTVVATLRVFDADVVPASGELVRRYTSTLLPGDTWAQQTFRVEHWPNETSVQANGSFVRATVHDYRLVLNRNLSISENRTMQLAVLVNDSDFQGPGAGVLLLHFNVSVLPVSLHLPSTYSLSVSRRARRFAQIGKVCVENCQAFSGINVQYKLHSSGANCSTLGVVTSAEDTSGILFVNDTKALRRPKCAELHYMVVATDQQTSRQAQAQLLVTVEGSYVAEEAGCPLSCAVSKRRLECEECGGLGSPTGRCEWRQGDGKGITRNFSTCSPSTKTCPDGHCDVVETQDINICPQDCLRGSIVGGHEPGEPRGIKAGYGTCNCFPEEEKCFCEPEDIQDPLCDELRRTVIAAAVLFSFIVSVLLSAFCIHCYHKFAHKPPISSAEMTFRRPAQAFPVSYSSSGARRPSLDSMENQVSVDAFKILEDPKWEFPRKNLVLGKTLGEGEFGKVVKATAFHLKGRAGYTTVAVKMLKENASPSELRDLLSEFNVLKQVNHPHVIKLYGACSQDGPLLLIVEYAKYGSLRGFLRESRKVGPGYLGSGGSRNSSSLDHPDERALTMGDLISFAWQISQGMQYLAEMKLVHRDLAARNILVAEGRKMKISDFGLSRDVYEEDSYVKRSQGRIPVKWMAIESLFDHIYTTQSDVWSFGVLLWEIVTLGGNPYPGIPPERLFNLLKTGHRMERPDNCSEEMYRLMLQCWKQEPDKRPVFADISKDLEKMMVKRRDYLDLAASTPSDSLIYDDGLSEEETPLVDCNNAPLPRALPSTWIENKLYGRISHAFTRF", "assay": "RET autophosphorylation (Y905, Y1062) Western blot in transfected fibroblasts (RAT1)", "assay_type": "cell-based", "settings": "2 h", "experimental": "Fibroblasts transfected with RET/C634R were treated with increasing doses of NPA101.3, ranging from 0.1 to 10.0 nM. RET autophosphorylation was assessed by Western blotting using two different antibodies that can recognize phosphorylated Y905, located in the RET kinase activation loop, or Y1062, a multidocking site involved in RET downstream signaling.[41]\nFigure 4 NPA101.3-mediated inhibition of phosphorylation and signaling of oncogenic RET mutants and VEGFR2 in intact cells. Serum-starved RAT1 cells exogenously expressing the (A and B) indicated RET point mutants or (C) NIH3T3 cells exogenously expressing the indicated RET rearranged mutants were treated for 2 h with the indicated concentrations of the compound. Total cell lysates (50 μg) were subjected to immunoblotting with anti-phospho-Y1062 (αp1062) and anti-phospho-Y905 (αp905) RET antibodies. The blots were normalized using the anti-RET (αRET) antibody. (D) HEK293 cells were transiently transfected with human VEGFR2; 36 h after transfection, cells were serum starved for 12 h. The indicated doses of the compound or vehicle (NT) were added for 2 h, and then VEGFA (100 ng/mL) stimulation was applied for 15 min. […]\nProtein lysates were prepared according to standard procedures. […] Immune complexes were detected with the enhanced chemiluminescence kit (Amersham Pharmacia Biotech, Little Chalfont, U.K.). […]"}},
  "data": [
    {"smiles": "CC(C)(C)c1cc(NC(=O)Cc2ccc(-n3cnc4cc(-c5ccc(S(C)(=O)=O)cc5)ccc43)cc2)no1", "note": "[NPA101.3]", "values": [
      {"measurement": "remaining binding at 0.1 µM", "setting": "LKB1", "value": 81, "unit": "%"},
      {"measurement": "remaining binding at 0.1 µM", "setting": "CDK9", "value": 100, "unit": "%"},
      {"measurement": "remaining binding at 0.1 µM", "setting": "PCTK1", "value": 89, "unit": "%"},
      {"measurement": "remaining binding at 0.1 µM", "setting": "EGFR", "value": 96, "unit": "%"},
      {"measurement": "remaining binding at 0.1 µM", "setting": "PIK3C2B", "value": 100, "unit": "%"},
      {"measurement": "remaining binding at 0.1 µM", "setting": "MUSK", "value": 23, "unit": "%"},
      {"measurement": "remaining binding at 0.1 µM", "setting": "FGFR3", "value": 100, "unit": "%"},
      {"measurement": "remaining binding at 0.1 µM", "setting": "GAK", "value": 42, "unit": "%"},
      {"measurement": "binding (% bound)", "setting": "HCK", "value": "> 90", "unit": "% bound"},
      {"measurement": "remaining binding at 0.1 µM", "setting": "HCK; HCK, read-out: Percent Control", "value": 6.5, "unit": "%"},
      {"measurement": "remaining binding at 0.1 µM", "setting": "MTOR", "value": 97, "unit": "%"},
      {"measurement": "remaining binding at 0.1 µM", "setting": "PRKD2", "value": 100, "unit": "%"},
      {"measurement": "remaining binding at 0.1 µM", "setting": "INSR", "value": 100, "unit": "%"},
      {"measurement": "remaining binding at 0.1 µM", "setting": "PIK3CA", "value": 100, "unit": "%"},
      {"measurement": "remaining binding at 0.1 µM", "setting": "BRSK2", "value": 100, "unit": "%"},
      {"measurement": "RET phosphorylation (Y905, Y1062)", "setting": "RET/C634R; 0.3 nM", "value": "started to be inhibited"},
      {"measurement": "RET phosphorylation (Y905, Y1062)", "setting": "RET/C634R; 3.0 nM", "value": "almost completely blocked"}
    ]}
  ]
}
